Experimental data from patent publication US20250017998A1, “SP-8356, EMODIN, AND IT603 ENHANCE BEIGE ADIPOCYTE ACTIVITY AND ALLEVIATE OBESITY AND DIABETES VIA UNCOUPLING PROTEIN 1 (UCP1)-INDEPENDENT MECHANISM” (The Chinese University of Hong Kong, priority 2023, published 2025).

Key:
[1] = test system: WT human beige adipocytes; assay: Seahorse Mitochondrial Stress Test, oxygen consumption rate in WT human beige adipocytes; assay type: cell-based; settings: 1 μM, 24 h, WT hiPSC-derived beige adipocytes, vs DMSO (FIGS. 2A-2C)
Procedure: (§1) FIGS. 2A-2F. SP-8356, emodin, and IT603 increase energy expenditure in human beige adipocytes in a UCP1-independent manner. WT or UCP1 knockout hiPSCs were differentiated to beige adipocytes followed by treatment with SP-8356 (1 μM), Emodin (1 μM), and IT603 (1 μM) for 24 h, respectively. DMSO was used as the vehicle control. The oxygen consumption rate (OCR) was examined by the Seahorse Mitochondrial Stress Test assay. (FIGS. 2A-2C) OCR in WT human beige adipocytes treated with SP-8356, Emodin, and IT603, respectively. (FIGS. 2D-2F) OCR in UCP1 knockout human beige adipocytes treated with SP-8356, Emodin, and IT603, respectively. *p<0.05, **p<0.01. A total of 20 days was required for hiPSC differentiation into beige adipocytes. We used BMP4 (10 ng/mL) and ActivinA (25 ng/mL) from day 0 to day 4 to induce mesodermal differentiation in the first stage. We then induce mesodermal progenitors to differentiate into adipocyte progenitors with insulin ([…]), isobutylmethylxanthine (IBMX) (500 μmol/L), dexamethasone (1 μmol/L), and indomethacin (50 μmol/L) from day 4 to day 10. Eventually, mature beige adipocytes will be formed by insulin (1 μg/mL) induction on day 10 to 20. […] were plated in the XF96 plates (Agilent Technologies, Inc., Santa Clara, CA) and differentiated into the beige adipocytes. The XF Cell Mito Stress Test Kit (Seahorse Bioscience, 103015-100) was used to perform the assay by following the manufacturer's instructions.

[2] = test system: UCP1 knockout human beige adipocytes; assay: Seahorse Mitochondrial Stress Test, oxygen consumption rate in UCP1 knockout human beige adipocytes; assay type: cell-based; settings: 1 μM, 24 h, UCP1 knockout hiPSC-derived beige adipocytes, vs DMSO (FIGS. 2D-2F)
Procedure: as §1

[3] = test system: LETMD1; assay: RNA-seq of LETMD1 mRNA in hiPSC-derived beige adipocytes; assay type: cell-based, human; settings: 0.1 μM, 24 h, RNA sequencing (FIG. 1B)
Procedure: (§2) FIGS. 1A-1C. Generation and characterization of the LETMD1-tdTomato reporter hiPSC. (FIG. 1A) Schematic illustration of the knock-in design for the LETMD1-tdTomato reporter hiPSCs. (FIG. 1B) hiPSCs were differentiated into beige adipocytes and treated with β3 adrenergic receptor (β3-AR) agonist Mirabegron (0.1 μM) for 24 h and subjected to RNA-seq. The fold change of LETMD1 and its analogue LETM1 were plotted. (FIG. 1C) Representative images of tdTomato fluorescence intensity in LETMD1 reporter hiPSC-derived beige adipocytes treated with or without Mirabegron (0.1 μM) for 24 h.
A total of 20 days was required for hiPSC differentiation into beige adipocytes. We used BMP4 (10 ng/mL) and ActivinA (25 ng/mL) from day 0 to day 4 to induce mesodermal differentiation in the first stage. We then induce mesodermal progenitors to differentiate into adipocyte progenitors with insulin ([…]), isobutylmethylxanthine (IBMX) (500 μmol/L), dexamethasone (1 μmol/L), and indomethacin (50 μmol/L) from day 4 to day 10. […]
(§3) To monitor the endogenous LETMD1 expression in human iPSCs with ease, we generated a fluorescent protein-based reporter human iPS cell line using a CRISPR/Cas9-mediated knock-in (KI) system (FIG. 1A). […] This cell line enables us to monitor the endogenous expression of LETMD1 in a high-throughput manner using the red fluorescence intensity as a surrogate.

[4] = test system: LETMD1; assay: LETMD1-tdTomato reporter hiPSC-derived beige adipocytes, red fluorescence; assay type: cell-based, human; settings: 0.1 μM, 24 h, LETMD1 reporter hiPSC-derived beige adipocytes (FIG. 1C)
Procedure: as §2
A total of 20 days was required for hiPSC differentiation into beige adipocytes. […]
LETMD1 reporter hiPSCs were plated in the 96-well plates and differentiated into beige adipocytes. […] After that, the red fluorescent signals were quantified by the ThermoFisher (Waltham, MA) Varioskan Multimode Microplate Reader. […] measurement for each compound was normalized to the vehicle control group.
as §3

## COc1cc(Br)cc(/C=C2/NC(=S)NC2=O)c1O [IT603]
[1]
  oxygen consumption rate (OCR): showed most significant capacity to elevate the OCR
[2]
  oxygen consumption rate (OCR): enhanced the OCR

## COc1cc(/C=C/C2=CC(=O)[C@H]3C[C@@H]2C3(C)C)cc(O)c1O [SP-8356]
[1]
  oxygen consumption rate (OCR): showed most significant capacity to elevate the OCR
[2]
  oxygen consumption rate (OCR): enhanced the OCR

## Cc1cc(O)c2c(c1)C(=O)c1cc(O)cc(O)c1C2=O [emodin]
[1]
  oxygen consumption rate (OCR): showed most significant capacity to elevate the OCR
[2]
  oxygen consumption rate (OCR): enhanced the OCR

## Nc1nc(CC(=O)Nc2ccc(CCNC[C@H](O)c3ccccc3)cc2)cs1 [Mirabegron]
[3]
  mRNA level of LETMD1: significantly increased
[4]
  density of tdTomato fluorescent protein: increased significantly
